In ChEMBL document CHEMBL1155953, “Synthesis and biological evaluation of C-12' substituted vinflunine derivatives” (Bioorg Med Chem Lett, 2008):

Tested on: A549
Assay: Cytotoxicity against human A549 cells by SRB assay
Format: functional, cell-based

Structure (SMILES)	IC50 [nM]
CC[C@]12C=CCN3CC[C@@]4(c5cc([C@@]6(C(=O)OC)C[C@H]7C[C@@H](C(C)(F)F)CN(Cc8c6[nH]c6ccc(NC(=O)C(Cl)Cl)cc86)C7)c(OC)cc5N(C)[C@H]4[C@@](O)(C(=O)OC)[C@@H]1OC(C)=O)[C@@H]32	200
CC[C@]12C=CCN3CC[C@@]4(c5cc([C@@]6(C(=O)OC)C[C@H]7C[C@@H](C(C)(F)F)CN(CCc8c6[nH]c6ccc(-c9ccc(C)cc9)cc86)C7)c(OC)cc5N(C)[C@H]4[C@@](O)(C(=O)OC)[C@@H]1OC(C)=O)[C@@H]32	560
CCCCNCc1ccc2[nH]c3c(c2c1)CN1C[C@H](C[C@@H](C(C)(F)F)C1)C[C@]3(C(=O)OC)c1cc2c(cc1OC)N(C)[C@H]1[C@@](O)(C(=O)OC)[C@H](OC(C)=O)[C@]3(CC)C=CCN4CC[C@]21[C@@H]43	1740
CC[C@]12C=CCN3CC[C@@]4(c5cc([C@@]6(C(=O)OC)C[C@H]7C[C@@H](C(C)(F)F)CN(CCc8c6[nH]c6ccc(N9CCCC9)cc86)C7)c(OC)cc5N(C)[C@H]4[C@@](O)(C(=O)OC)[C@@H]1OC(C)=O)[C@@H]32	640
CC[C@]12C=CCN3CC[C@@]4(c5cc([C@@]6(C(=O)OC)C[C@H]7C[C@@H](C(C)(F)F)CN(Cc8c6[nH]c6ccc(NC(=O)OC)cc86)C7)c(OC)cc5N(C)[C@H]4[C@@](O)(C(=O)OC)[C@@H]1OC(C)=O)[C@@H]32	420
CCOC(=O)c1ccc2[nH]c3c(c2c1)CN1C[C@H](C[C@@H](C(C)(F)F)C1)C[C@]3(C(=O)OC)c1cc2c(cc1OC)N(C)[C@H]1[C@@](O)(C(=O)OC)[C@H](OC(C)=O)[C@]3(CC)C=CCN4CC[C@]21[C@@H]43	1030
CC[C@]12C=CCN3CC[C@@]4(c5cc([C@@]6(C(=O)OC)C[C@H]7C[C@@H](C(C)(F)F)CN(CCc8c6[nH]c6ccc(NC(C)=O)cc86)C7)c(OC)cc5N(C)[C@H]4[C@@](O)(C(=O)OC)[C@@H]1OC(C)=O)[C@@H]32	41000
CC[C@]12C=CCN3CC[C@@]4(c5cc([C@@]6(C(=O)OC)C[C@H]7C[C@@H](C(C)(F)F)CN(Cc8c6[nH]c6ccc(NC(=O)NC)cc86)C7)c(OC)cc5N(C)[C@H]4[C@@](O)(C(=O)OC)[C@@H]1OC(C)=O)[C@@H]32	35100
CC[C@]12C=CCN3CC[C@@]4(c5cc([C@@]6(C(=O)OC)C[C@H]7C[C@@H](C(C)(F)F)CN(Cc8c6[nH]c6ccc(CNCCCN9CCOCC9)cc86)C7)c(OC)cc5N(C)[C@H]4[C@@](O)(C(=O)OC)[C@@H]1OC(C)=O)[C@@H]32	> 100000
CC[C@]12C=CCN3CC[C@@]4(c5cc([C@@]6(C(=O)OC)C[C@H]7C[C@@H](C(C)(F)F)CN(CCc8c6[nH]c6ccc(C#N)cc86)C7)c(OC)cc5N(C)[C@H]4[C@@](O)(C(=O)OC)[C@@H]1OC(C)=O)[C@@H]32	290
